# Where two headings read alike, the source gives them in different places.
# Key:
# [1] = system: TNFα release from human monocyte derived macrophages stimulated with LPS; experiment: SIK macrophage cytokine assay, inhibition of TNFα release; assay type: cell-based; conditions: 1 ng/mL LPS, 4 hours, HTRF, read-out: TNFa IC50
# Protocol: (§1) Cytokine Assays: SIK Macrophage Assay Cytokine activity is determined by measuring the effect of a test agent on the inhibitory release of the cytokine TNFα and the increasing release of the cytokine IL10 from human monocyte derived macrophages (human macrophages) stimulated with lipopolysaccharide (LPS). At the time of assay, human macrophages (CGPS group Pfizer Groton, CT) are removed from cryopreservation, thawed quickly at 37° C., diluted in thaw medium (OptiMEM—Gibco medium, 10% heat inactivated fetal bovine serum (HIFBS)), and then centrifuged at 200×g for 10 minutes. […] After ˜60 minutes in an incubator at 37° C. in a humidified environment in 5% carbon dioxide the cells are stimulated by the addition of 5 μL of LPS (10 ng/mL; Sigma) and the assay plate is returned to an incubator at 37° C. in a humidified environment in 5% carbon dioxide for 4 hours. […] The final concentration of DMSO in the assay is approximately 0.1%. After 4 hours, the assay plate is removed from the incubator and centrifuged at 1500 rpm for 10 minutes. A portion of the resulting cell supernatant is then used to determine the amount of IL-10 and TNFα in each well. Cytokine measurements are made using human IL-10 and TNFα HTRF assay kits (Perkin Elmer) following the manufacturer's assay protocol.
# SIK3 = SIK3 (Homo sapiens (Human), UniProt Q9Y2K2); experiment: Pan SIK MS IC50 enzyme assay (SIK3); assay type: biochemical; conditions: 1 mM ATP, substrate peptide AQT0508, LCMS/MS detection
# Protocol: (§2) Enzyme Assay: Pan SIK MS IC50 Assay
# (§3) Salt Induced Kinase (SIK) activity is determined by measuring the effect of a test agent on the activity of the appropriate SIK enzyme to phosphorylate its corresponding substrate. […] The phosphorylated substrate product resulting from the kinase reaction is detected by LCMS/MS, and the area under the peak curve correlates with kinase activity. […] The plates are spun at 1000 rpm for 30 seconds to ensure compounds are at the bottom of the well before removing foil covers. 0.15 μL HPE (assay std) and ZPE (DMSO) are added to the ARP using an HP D300 dispenser. Plates are spun again at 1000 rpm for 30 seconds. […] Plates are spun at 1000 rpm for 30 seconds. Plates are then sealed and incubated at RT for 10 minutes. Following incubation, 5 μL of 5× peptide reagent is added with a Multidrop Combi and designated small volume cassette to initiate the kinase reaction. Plates are spun at 1000 rpm for 30 seconds. Plates are then sealed and incubated at RT for 90 minutes. The assay is stopped by the addition of 5 μl of 120 mM EDTA added with a Multidrop Combi and designated small volume cassette (20 mM final concentration). Plates are spun at 1000 rpm for 30 seconds. 10 μl of the final reaction mix from each of the three individual enzyme plates are transferred by a Platemate Plus to the same corresponding 96 well deepwell plate containing 70 μl Water/Methanol (85/15%) for multiplex MS detection ([…]). Using Activity Base (ABase), an idbs data analysis software tool, the reported area ratio unit data is associated to compound, batch and dose information, the data is evaluated for quality, and the percent inhibition of each well is calculated. The data from each Max effect/HPE and Min effect/ZPE control wells are assessed, and outliers are excluded from all further calculations. The mean and standard deviation of the HPE and ZPE are then calculated for each plate, along with the Z Prime. The compound data is converted into % effect, using the average ZPE and HPE controls as 0% and 100% activity, respectively.
# SIK2 = SIK2 (Homo sapiens (Human), UniProt Q9H0K1); experiment: Pan SIK MS IC50 enzyme assay (SIK2); assay type: biochemical; conditions: 1 mM ATP, substrate peptide AQT0252, LCMS/MS detection
# Protocol: as §2, §3
# SIK1 = SIK1 (Homo sapiens (Human), UniProt P57059); experiment: Pan SIK MS IC50 enzyme assay (SIK1); assay type: biochemical; conditions: 1 mM ATP, substrate peptide AQT0868, LCMS/MS detection
# Protocol: as §2, §3
# [2] = system: IL10 release from human monocyte derived macrophages stimulated with LPS; experiment: SIK macrophage cytokine assay, increase of IL10 release; assay type: cell-based; conditions: 1 ng/mL LPS, 4 hours, HTRF
# Protocol: as §1
# SIK2, sequence (Q9H0K1 whole entry, species assumed): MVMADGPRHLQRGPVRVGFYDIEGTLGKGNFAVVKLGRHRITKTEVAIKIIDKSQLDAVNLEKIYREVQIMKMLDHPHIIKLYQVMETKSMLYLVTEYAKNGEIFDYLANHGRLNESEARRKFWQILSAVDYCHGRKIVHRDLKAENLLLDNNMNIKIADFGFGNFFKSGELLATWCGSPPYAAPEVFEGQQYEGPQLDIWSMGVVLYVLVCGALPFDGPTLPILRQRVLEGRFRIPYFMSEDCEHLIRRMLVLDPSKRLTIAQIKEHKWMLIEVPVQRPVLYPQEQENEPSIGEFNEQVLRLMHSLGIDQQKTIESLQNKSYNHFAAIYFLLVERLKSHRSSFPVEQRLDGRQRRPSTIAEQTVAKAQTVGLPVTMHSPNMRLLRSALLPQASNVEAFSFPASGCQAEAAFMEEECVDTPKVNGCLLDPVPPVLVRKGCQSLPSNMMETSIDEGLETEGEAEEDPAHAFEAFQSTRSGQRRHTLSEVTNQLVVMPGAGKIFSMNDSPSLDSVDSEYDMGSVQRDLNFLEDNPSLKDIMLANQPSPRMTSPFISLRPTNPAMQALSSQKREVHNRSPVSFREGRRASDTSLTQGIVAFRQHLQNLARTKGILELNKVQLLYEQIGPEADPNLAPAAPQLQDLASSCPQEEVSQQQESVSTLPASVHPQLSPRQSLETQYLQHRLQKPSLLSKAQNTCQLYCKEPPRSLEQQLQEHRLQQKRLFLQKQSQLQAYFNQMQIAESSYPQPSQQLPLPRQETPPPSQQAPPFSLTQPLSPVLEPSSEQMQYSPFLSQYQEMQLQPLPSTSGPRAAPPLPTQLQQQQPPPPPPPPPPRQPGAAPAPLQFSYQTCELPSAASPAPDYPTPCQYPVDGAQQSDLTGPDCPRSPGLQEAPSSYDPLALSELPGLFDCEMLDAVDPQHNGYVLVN
# SIK1, sequence (P57059 whole entry, species assumed): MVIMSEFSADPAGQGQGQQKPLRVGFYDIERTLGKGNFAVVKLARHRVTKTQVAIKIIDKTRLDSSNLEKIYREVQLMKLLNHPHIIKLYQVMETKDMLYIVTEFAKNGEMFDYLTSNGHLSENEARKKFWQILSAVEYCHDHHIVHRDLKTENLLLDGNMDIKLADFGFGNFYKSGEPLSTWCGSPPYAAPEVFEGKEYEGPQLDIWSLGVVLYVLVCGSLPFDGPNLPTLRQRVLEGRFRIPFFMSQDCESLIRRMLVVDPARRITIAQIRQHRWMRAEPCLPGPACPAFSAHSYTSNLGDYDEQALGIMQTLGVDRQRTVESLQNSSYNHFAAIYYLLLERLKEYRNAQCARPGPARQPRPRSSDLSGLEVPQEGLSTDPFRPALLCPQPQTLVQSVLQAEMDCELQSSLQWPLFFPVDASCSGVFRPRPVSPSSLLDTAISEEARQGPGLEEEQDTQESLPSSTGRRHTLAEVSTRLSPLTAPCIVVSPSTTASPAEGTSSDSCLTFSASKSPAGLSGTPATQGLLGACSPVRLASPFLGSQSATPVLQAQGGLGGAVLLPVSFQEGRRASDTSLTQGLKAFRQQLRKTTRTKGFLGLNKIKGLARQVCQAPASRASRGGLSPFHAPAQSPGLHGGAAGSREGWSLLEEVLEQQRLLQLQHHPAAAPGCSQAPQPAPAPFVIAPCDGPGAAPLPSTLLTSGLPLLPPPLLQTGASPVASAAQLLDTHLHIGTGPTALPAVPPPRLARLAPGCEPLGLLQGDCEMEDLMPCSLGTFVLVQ
# SIK3, sequence (Q9Y2K2 whole entry, species assumed): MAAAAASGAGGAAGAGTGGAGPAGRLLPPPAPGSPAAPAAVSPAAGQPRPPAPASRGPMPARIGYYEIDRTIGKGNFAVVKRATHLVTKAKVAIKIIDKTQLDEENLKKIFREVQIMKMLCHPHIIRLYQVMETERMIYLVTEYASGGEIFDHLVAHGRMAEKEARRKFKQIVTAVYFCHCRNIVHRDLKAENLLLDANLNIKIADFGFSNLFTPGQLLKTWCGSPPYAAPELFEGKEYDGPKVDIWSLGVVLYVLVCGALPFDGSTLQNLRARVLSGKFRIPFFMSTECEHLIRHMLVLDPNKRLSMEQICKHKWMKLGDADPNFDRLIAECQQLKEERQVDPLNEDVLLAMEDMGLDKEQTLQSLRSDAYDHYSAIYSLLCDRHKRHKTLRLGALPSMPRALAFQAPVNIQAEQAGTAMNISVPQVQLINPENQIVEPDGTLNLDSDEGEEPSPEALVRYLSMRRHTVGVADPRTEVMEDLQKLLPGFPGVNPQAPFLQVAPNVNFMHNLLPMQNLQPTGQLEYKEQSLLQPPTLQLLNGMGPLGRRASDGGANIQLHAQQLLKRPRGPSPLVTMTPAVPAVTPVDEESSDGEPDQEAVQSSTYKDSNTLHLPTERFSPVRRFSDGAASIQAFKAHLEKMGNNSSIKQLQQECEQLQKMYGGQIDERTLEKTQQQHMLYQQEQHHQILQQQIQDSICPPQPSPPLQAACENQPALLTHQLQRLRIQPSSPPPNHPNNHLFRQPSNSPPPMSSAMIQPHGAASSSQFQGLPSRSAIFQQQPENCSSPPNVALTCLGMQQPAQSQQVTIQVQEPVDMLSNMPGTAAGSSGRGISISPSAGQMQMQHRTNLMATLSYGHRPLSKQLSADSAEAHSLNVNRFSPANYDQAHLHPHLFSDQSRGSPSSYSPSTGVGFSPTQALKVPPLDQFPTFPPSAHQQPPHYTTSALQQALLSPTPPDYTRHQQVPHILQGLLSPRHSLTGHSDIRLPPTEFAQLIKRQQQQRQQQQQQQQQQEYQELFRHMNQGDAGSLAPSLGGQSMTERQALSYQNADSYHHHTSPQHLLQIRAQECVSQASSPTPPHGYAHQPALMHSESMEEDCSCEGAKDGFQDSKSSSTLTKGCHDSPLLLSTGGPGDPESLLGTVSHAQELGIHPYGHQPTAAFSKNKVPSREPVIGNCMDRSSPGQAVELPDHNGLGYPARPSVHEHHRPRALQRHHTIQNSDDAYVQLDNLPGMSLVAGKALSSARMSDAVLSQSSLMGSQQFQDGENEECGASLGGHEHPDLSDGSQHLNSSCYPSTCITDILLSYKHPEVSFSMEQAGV
Compound,IC50 (SIK3),IC50 (SIK2),IC50 (SIK1),IC50 ([1]; Macrophage),EC50 ([2]; Macrophage),IC50 [1],EC50 [2]
"COCC1CCC[C@@](N)(COc2cc(-c3cnc4ccccn34)cc(SC)c2C#N)C1 (mixture of isomers) [Example 31, 2-(((1S)-1-Amino-3-(methoxymethyl)cyclohexyl)methoxy)-4-(imidazo[1,2-a]pyridin-3-yl)-6-(methylthio)benzonitrile and 2-(((1R)-1-amino-3-(methoxymethyl)-cyclohexyl)methoxy)-4-(imidazo[1,2-a]pyridin-3-yl)-6-(methylthio)benzonitrile]",4.8 nM,1.6 nM,0.7 nM,,,13.8 nM,36 nM
"CC[C@@H]1CCC[C@@]1(N)COc1cc(-c2cnc3cccc(C#N)n23)cc(SC)c1C#N (racemic) [Example 7, 3-(3-(((1S,2R)-1-Amino-2-ethylcyclopentyl)methoxy)-4-cyano-5-(methylthio)phenyl)imidazo[1,2-a]pyridine-5-carbonitrile and 3-(3-(((1R,2S)-1-amino-2-ethylcyclopentyl)methoxy)-4-cyano-5-(methylthio)phenyl)imidazo[1,2-a]pyridine-5-carbonitrile]",1.8 nM,0.8 nM,0.5 nM,1.5 nM,5 nM,,
"CC[C@H]1CCC[C@@](N)(COc2cc(-c3cnc4cccc(C#N)n34)cc(SC)c2C#N)C1 (racemic) [Example 18, 3-(3-(((1S,3S)-1-Amino-3-ethylcyclohexyl)methoxy)-4-cyano-5-(methylthio)phenyl)imidazo[1,2-a]pyridine-5-carbonitrile and 3-(3-(((1R,3R)-1-amino-3-ethylcyclohexyl)methoxy)-4-cyano-5-(methylthio)phenyl)imidazo[1,2-a]pyridine-5-carbonitrile]",1 nM,0.6 nM,0.1 nM,1.1 nM,5 nM,,
"CSc1cc(-c2cnc3cccc(C#N)n23)cc(OCC2(N)CCSC2)c1C#N (racemic) [Example 27, (R)-3-(3-((3-aminotetrahydrothiophen-3-yl)methoxy)-4-cyano-5-(methylthio)phenyl)imidazo[1,2-a]pyridine-5-carbonitrile and (6)-3-(3-(((3-aminotetrahydrothiophen-3-yl)methoxy)-4-cyano-5-(methylthio)phenyl)imidazo[1,2-a]pyridine-5-carbonitrile]",5.1 nM,2.5 nM,3.3 nM,25.8 nM,142 nM,,
"COc1cccc2ncc(-c3cc(OCC4(N)CCCC4)c(C#N)c(SC)c3)n12 [Example 1, 2-((1-Aminocyclopentyl)methoxy)-4-(5-methoxyimidazo[1,2-a]pyridin-3-yl)-6-(methylthio)benzonitrile]",7.5 nM,2.2 nM,2.5 nM,26.4 nM,109 nM,,
"CCC1CCC(N)(COc2cc(-c3cnc4cccc(OC)n34)cc(OC)c2C#N)C1 (centres unmarked) [Example 3, 2-((1-Amino-3-ethylcyclopentyl)methoxy)-6-methoxy-4-(5-methoxyimidazo[1,2-a]pyridin-3-yl)benzonitrile]",4.7 nM,2.1 nM,0.8 nM,29.7 nM,92 nM,,
"CCC1CCCC1(N)COc1cc(-c2cnc3cccc(OC)n23)cc(SC)c1C#N (centres unmarked) [Example 8, 2-((1-Amino-2-ethylcyclopentyl)methoxy)-4-(5-methoxyimidazo[1,2-a]pyridin-3-yl)-6-(methylthio)benzonitrile]",3.3 nM,1 nM,1.1 nM,11.1 nM,23 nM,,
COc1cc(-c2cnc3cccc(OC)n23)cc(OCC2(N)CCCN(CC(F)(F)F)C2)c1C#N (centres unmarked) [Example 21A],4.4 nM,1.1 nM,1 nM,,,19.6 nM,50 nM
"COc1cccc2ncc(-c3cc(OCC4(N)CCCCC4)c(C#N)c(SC)c3)n12 [Example 29, 2-((1-Aminocyclohexyl)methoxy)-4-(5-methoxyimidazo[1,2-a]pyridin-3-yl)-6 (methylthio)benzonitrile]",11.4 nM,2.9 nM,2.4 nM,29.1 nM,75 nM,,
"CSc1cc(-c2cnc3cccc(C#N)n23)cc(OCC2(N)CCCC2)c1C#N [Example 36, 3-(3-((1-Aminocyclopentyl)methoxy)-4-cyano-5-(methylthio)phenyl)imidazo[1,2-a]pyridine-5-carbonitrile]",2.1 nM,0.8 nM,1.2 nM,4.8 nM,35 nM,,
"CCOC(=O)c1cc(C#N)n2c(-c3cc(OCC4(N)CCCC4)c(C#N)c(SC)c3)cnc2c1 [Example 38, Ethyl 3-(3-((1-aminocyclopentyl)methoxy)-4-cyano-5-(methylthio)phenyl)-5-cyanoimidazo[1,2-a]pyridine-7-carboxylate]",1.8 nM,1 nM,1.5 nM,20.1 nM,51 nM,,
"COc1ccc2ncc(-c3cc(OCC4(N)CCCC4)c(C#N)c(SC)c3)n2c1C#N [Example 39, 3-(3-((1-Aminocyclopentyl)methoxy)-4-cyano-5-(methylthio)phenyl)-6-methoxyimidazo[1,2-a]pyridine-5-carbonitrile]",1.1 nM,1 nM,0.5 nM,6 nM,25 nM,,

# More lines, main results first:
IC50 (SIK3),IC50 (SIK2),IC50 (SIK1),IC50 ([1]; Macrophage),EC50 ([2]; Macrophage),Compound,IC50 [1],EC50 [2]
23.4 nM,9.9 nM,10.9 nM,,,"CSc1cc(-c2cnc3ccccn23)cc(OC[C@@]2(N)CCC[C@H](C(F)(F)F)C2)c1C#N.CSc1cc(-c2cnc3ccccn23)cc(OC[C@]2(N)CCC[C@@H](C(F)(F)F)C2)c1C#N (mixture of isomers) [Example 33B, 2-(((1R,3S)-1-Amino-3-(trifluoromethyl)cyclohexyl)methoxy)-4-(imidazo[1,2-a]pyridin-3-yl)-6-(methylthio)benzonitrile and 2-(((1S,3R)-1-amino-3-(trifluoromethyl)cyclohexyl)methoxy)-4-(imidazo[1,2-a]pyridin-3-yl)-6-(methylthio)benzonitrile]",258 nM,338 nM
2.2 nM,1 nM,0.6 nM,13.9 nM,34 nM,"CSc1cc(-c2cnc3ccccn23)cc(OC[C@@]2(N)CCC[C@@H](C(F)(F)F)C2)c1C#N (racemic) [Example 33A, 2-(((1S,3S)-1-Amino-3-(trifluoromethyl)cyclohexyl)methoxy)-4-(imidazo[1,2-a]pyridin-3-yl)-6-(methylthio)benzonitrile and 2-(((1R,3R)-1-amino-3-(trifluoromethyl)cyclohexyl)methoxy)-4-(imidazo[1,2-a]pyridin-3-yl)-6-(methylthio)benzonitrile]",,
2 nM,0.6 nM,0.5 nM,5.2 nM,21 nM,"CC[C@@H]1CCC[C@@]1(N)COc1cc(-c2cnc3cccc(OC)n23)cc(OC)c1C#N [Example 2A, 2-(((1S,2R)-1-Amino-2-ethylcyclopentyl)methoxy)-6-methoxy-4-(5-methoxyimidazo[1,2-a]pyridin-3-yl)benzonitrile]",,
71.3 nM,11.1 nM,12 nM,271 nM,570 nM,"CC[C@H]1CCC[C@]1(N)COc1cc(-c2cnc3cccc(OC)n23)cc(OC)c1C#N [Example 2B, 2-(((1R,2S)-1-Amino-2-ethylcyclopentyl)methoxy)-6-methoxy-4-(5-methoxyimidazo[1,2-a]pyridin-3-yl)benzonitrile]",,

# Source: patent publication US20240124450A1, “Novel SIK Inhibitors” (Pfizer Inc., priority 2022, published 2024)
